The experiment concerns the target human factor IXa (Homo sapiens (Human), UniProt P00740). Kind of experiment: Determination of Inhibitory Activity Against Factor IXa. Conditions: Factor IXa enzyme assay human; read-out: FIXa IC50. The class given is biochemical. Here is the method: Inhibitory activity against factor IXa was tested using the substrate SPECTROFLUOR FIXa (american diagnostica inc.; 500 West Avenue, Stamford, Conn. 06902 USA; Pr. No. 299F) and human factor IXa (american diagnostica inc.; Pr. No. 449b). Test substances were dissolved in buffer A (50 mM α,α,α-tris(hydroxymethyl) methylamine (Tris), 100 mM NaCl, 5 mM CaCl2, 15% (v/v) ethylene glycol, pH 8.0) were mixed with factor IXa (0.1 μg/ml final concentration). The enzyme reaction was started by addition of SPECTROFLUOR FIXa (100 μM final concentration). After incubation for 60 minutes at room temperature, the reaction was stopped by the addition of 20% (v/v) acetic acid solution, and then the fluorescence value was measured (Excitation Wavelength: 355 nm, Emission Wavelength; 460 nm) in a microtiter plate reader (ARVO 1420 Multilabel Counter; PerkinElmer).
The IC50 was calculated from a dilution series of the test substance with the aid of the software, Symyx Assay Explorer (Symyx Technologies, Inc.).

Structures are written as SMILES.

Chain of human factor IXa (P00740 227-461): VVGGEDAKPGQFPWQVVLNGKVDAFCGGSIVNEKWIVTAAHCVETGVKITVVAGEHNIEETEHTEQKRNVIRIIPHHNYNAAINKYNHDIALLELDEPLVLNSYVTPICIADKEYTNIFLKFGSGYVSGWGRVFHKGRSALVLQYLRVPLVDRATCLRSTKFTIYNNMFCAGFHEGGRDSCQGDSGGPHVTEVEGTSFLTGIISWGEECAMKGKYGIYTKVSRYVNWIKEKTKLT
Chain of human factor IXa (P00740 47-191 partner): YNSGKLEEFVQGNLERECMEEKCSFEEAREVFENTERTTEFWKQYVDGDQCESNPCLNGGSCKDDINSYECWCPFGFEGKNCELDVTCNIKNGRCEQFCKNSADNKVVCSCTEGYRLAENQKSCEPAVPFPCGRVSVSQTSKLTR

On to `Nc1noc2c(N3CC[C@@H](NC(=O)c4ccc(-c5cncc(CO)c5)cc4Cl)C3)ccc(Cl)c12` [Example 25, (R)—N-(1-(3-Amino-4-chlorobenzo[d]isoxazol-7-yl)pyrrolidin-3-yl)-2-chloro-4-(5-(hydroxymethyl)pyridin-3-yl)benzamide], for which the IC50 is not above 100 nM.
Regarding `Nc1noc2c(N3CC[C@@H](NC(=O)c4ccc(-n5cnnc5)cc4Cl)C3)ccc(Cl)c12` [Example 9, (R)—N-(1-(3-Amino-4-chlorobenzo[d]isoxazol-7-yl)pyrrolidin-3-yl)-2-chloro-4-(4H-1,2,4-triazol-4-yl)benzamide], the IC50 was not above 100 nM.
In the case of `Cc1ncn(-c2ccc(C(=O)N[C@@H]3CCN(c4nc(C(F)F)cc5c(N)noc45)C3)c(Cl)c2)n1` [Example 39, (R)—N-(1-(3-Amino-5-(difluoromethyl)isoxazolo[5,4-c]pyridin-7-yl)pyrrolidin-3-yl)-2-chloro-4-(3-methyl-1H-1,2,4-triazol-1-yl)benzamide] it was 100 to 1000 nM; in that of `Cn1nc(-c2ccc(C(=O)N[C@@H]3CCN(c4ncc(Cl)c5c(N)noc45)C3)c(Cl)c2)ccc1=O` [Example 40, (R)—N-(1-(3-Amino-4-chloroisoxazolo[5,4-c]pyridin-7-yl)pyrrolidin-3-yl)-2-chloro-4-(1-methyl-6-oxo-1,6-dihydropyridazin-3-yl)benzamide], not above 100 nM; in that of `Nc1noc2c(N3C[C@H](NC(=O)c4c(Cl)cc(-n5cnnc5)cc4Cl)[C@@H](O)C3)cccc12` (relative stereo) [Example 8, N-((3S*,4S*)-1-(3-Aminobenzo[d]isoxazol-7-yl)-4-hydroxypyrrolidin-3-yl)-2,6-dichloro-4-(4H-1,2,4-triazol-4-yl)benzamide], not above 100 nM.
On to `Cn1ncn(-c2ccc(C(=O)N[C@@H]3CCN(c4ncc(Cl)c5c(N)noc45)C3)c(Cl)c2)c1=O` [Example 45, (R)—N-(1-(3-Amino-4-chloroisoxazolo[5,4-c]pyridin-7-yl)pyrrolidin-3-yl)-2-chloro-4-(1-methyl-5-oxo-1,5-dihydro-4H-1,2,4-triazol-4-yl)benzamide], for which the IC50 is not above 100 nM.
On to `Cc1ncn(-c2ccc(C(=O)NC3(C)CCN(c4cc(Cl)cc5c(N)noc45)C3)c(Cl)c2)n1` (centres unmarked) [Example 15, N-(1-(3-Amino-5-chlorobenzo[d]isoxazol-7-yl)-3-methylpyrrolidin-3-yl)-2-chloro-4-(3-methyl-1H-1,2,4-triazol-1-yl)benzamide], for which the IC50 was not above 100 nM.
The value for `Cc1cc2c(N)noc2c(N2CC[C@@H](NC(=O)c3c(Cl)cc(-n4cnn(C)c4=O)cc3Cl)C2)n1` [Example 49, (R)—N-(1-(3-Amino-5-methylisoxazolo[5,4-c]pyridin-7-yl)pyrrolidin-3-yl)-2,6-dichloro-4-(1-methyl-5-oxo-1,5-dihydro-4H-1,2,4-triazol-4-yl)benzamide] was not above 100 nM; that for `Nc1noc2c(N3CC[C@@H](NC(=O)c4ccc(-c5ccnc(CO)c5)cc4Cl)C3)ccc(Cl)c12` [Example 53, (R)—N-(1-(3-Amino-4-chlorobenzo[d]isoxazol-7-yl)pyrrolidin-3-yl)-2-chloro-4-(2-(hydroxymethyl)pyridin-4-yl)benzamide] was not above 100 nM; that for `Nc1noc2c(N3CC[C@@H](NC(=O)c4ccc(-n5cnnc5)cc4Cl)C3)cc(Cl)cc12` [Example 10, (R)—N-(1-(3-Amino-5-chlorobenzo[d]isoxazol-7-yl)pyrrolidin-3-yl)-2-chloro-4-(4H-1,2,4-triazol-4-yl)benzamide] was not above 100 nM.
With `COc1ncc(-c2ccc(C(=O)N[C@@H]3CCN(c4ncc(Cl)c5c(N)noc45)C3)c(Cl)c2)cn1` [Example 21, (R)—N-(1-(3-Amino-4-chloroisoxazolo[5,4-c]pyridin-7-yl)pyrrolidin-3-yl)-2-chloro-4-(2-methoxypyrimidin-5-yl)benzamide], the IC50 is not above 100 nM.

The term IC50 denotes the midpoint of a concentration-inhibition curve.
